# System: C. jejuni NCTC11168
# Test: Oxford cup inhibition zone test of lactic acid bacteria fermented supernate on Columbia blood agar
# Type: cell-based
# Conditions: Campylobacter jejuni, positive control 0.30 mg/mL, 48 h at 37° C., read-out: Diameter of inhibition zone
compound,measurement,value
CCn1cc(C(=O)O)c(=O)c2cc(F)c(N3CCNCC3)cc21 [norfloxacin],zone of inhibition at 300 µg/mL,19.7 ± 0.83 mm

# — patent US11160839B2, “Pediococcus pentosaceus CCFM1012 and application thereof to preparation of Campylobacter jejuni infection antagonism medicine” (Jiangnan University, priority 2018, dated 2021)
